Test results from patent US6432381B1, “Methods for targeting drug delivery to the upper and/or lower gastrointestinal tract” (Elan Pharma International Limited, priority 1994, dated 2002).

Experiments:
[1] = Particle size determination; type: physicochemical; settings: wet grinding
Experimental: As used herein, particle size is determined on the basis of weight average particle size as measured by conventional particle size measuring techniques well known to those skilled in the art, such as sedimentation field flow fractionation, photon correlation spectroscopy, or disk centrifugation. […] By “effective particle size” is meant that at least 90% of the particles in the sample measured by the above-noted weight sizing techniques have a particle size less than the stated size.
The particle size was determined during the milling process and again immediately before the suspensions were administered. Particle size was determined on the Coulter Model N4MD Submicron Particle Analyzer (Coulter Corp.; Miami Lakes, Fla.); and using the Microtrac Ultrafine Particle Analyzer (Leeds and Northrup Co.; St. Petersburg, Fla.).

GI tract [2] = assay: X-ray diagnostic imaging of mucoadhesion in the GI tract (ferrets); type: in vivo; settings: suspension milled in Pluronic F127
Experimental: (§1) The amount and site of the mucoadhesion was determined by x-ray diagnostic imaging. The imaging was performed in anesthetized rats with the exception of G05-R1 samples which were imaged in fasted and anesthetized ferrets. Images were obtained using the Siemens C-Arm Siremobil 3U x-ray unit. The imaging dose was 10 ml/kg administered via gastric intubation to the anesthetized animal. X-rays were taken at 15, 30, 45 and 60 minutes and at 1, 2, 5 and 24 hours post-dose. A 10-15 ml volume of air was introduced to the animal at 30 minutes to produce a double contrast image.
(§2) Images were evaluated by the criteria of: coating, homogeneity, rate of gastric emptying and the total transit time. These are considered to be a measure of the stability of the suspension during transit down the GI tract and the ability of the formulation to adhere to the lower gastrointestinal tract. Suspensions were rated excellent when there was a uniform coating with transradiation of long intestinal segments, sufficient radiodensity to delineate anatomical structure, rapid emptying and transit, and stability and homogeneity during GI transit. A plus sign (+) was assigned when imaging in the lower GI was exceptional, a minus sign (−) as given when it was not. […]

GI tract [3] = assay: X-ray diagnostic imaging of mucoadhesion in the GI tract (rats); type: in vivo
Experimental: as §1, §2

[4] = Table 3

In the case of `COC1=CC(=O)C[C@@H](C)[C@]12Oc1c(Cl)c(OC)cc(OC)c1C2=O` [griseofulvin], the “Particle Size Weight Average” value ([1]; griseofulvin 5%, poloxamer F-68 2.5%) is reported as 617 nm and the “Particle Size Weight Average” value ([1]; griseofulvin 5%, poloxamer F-127 2.5%) is reported as 617 nm.
In the case of `COc1ccc2cc([C@H](C)C(=O)O)ccc2c1` [naproxen], the “Particle Size Weight Average” value ([1]; naproxen 5%, poloxamer F-68 3.0%) is reported as 270 nm.
In the case of `CC[C@@]1(O)C(=O)OCc2c1cc1n(c2=O)Cc2cc3ccccc3nc2-1` [camptothecin], the “Particle Size Weight Average” value ([1]; camptothecin 2%, poloxamer F-68 2%) is reported as 107 nm and the “Particle Size Weight Average” value ([1]; camptothecin 2%, poloxamer F-108 1%) is reported as 111 nm.
With `CCC(=O)OCC(=O)[C@@]1(OC(=O)CC)[C@@H](C)C[C@H]2[C@@H]3CCC4=CC(=O)C=C[C@]4(C)[C@@]3(Cl)[C@@H](O)C[C@@]21C` [beclomethasone dipropionate] the “Particle Size Weight Average” value ([1]; beclomethasone dipropionate 5%, poloxamer F-68 2.5%) was 221 nm and the “Particle Size Weight Average” value ([1]; beclomethasone dipropionate 5%, poloxamer F-127 2.5%) was 244 nm.
For `CS(=O)(=O)OCCC(=O)N1CCN(C(=O)CCOS(C)(=O)=O)CC1` [piposulfan], the “Particle Size Weight Average” value ([1]; piposulfan 2%, poloxamer F-108 0.5%) was 339 nm.
In the case of `CS(=O)(=O)OCCCCOS(C)(=O)=O` [busulfan], the “Particle Size Weight Average” value ([1]; busulfan 2%, poloxamer F-108 0.5%) is reported as 387 nm.
For `CC(C)Cc1ccc(C(C)C(=O)O)cc1` (centres unmarked) [ibuprofen], the “Particle Size Weight Average” value ([1]; ibuprofen 3%, poloxamer F-68 2.0%) was 253 nm.
For `CCOC(=O)c1c(I)c(NC(C)=O)c(I)c(NC(C)=O)c1I` [WIN 8883, ethyl 3,5-bis(acetylamino)-2,4,6-triodobenzoate], the “Upper and lower GI imaging rating” value (GI tract [2]) was “excellent”, the “Upper and lower GI imaging rating” value (GI tract [3]; suspension milled in/stabilized with Pluronic F127, rats) was “excellent” and the GI imaging rating (GI tract [3]; suspension stabilized with F88, for the upper GI only) was “excellent”. For the same compound, the “Aqueous Solubility” value [4] was <5 µg/mL.
In the case of `O=C1NC(=O)C(c2ccccc2)(c2ccccc2)N1` [phenytoin], the “Particle Size Weight Average” value ([1]; phenytoin 5%, poloxamer F-68 2.5%) is reported as 385 nm, the “Particle Size Weight Average” value ([1]; phenytoin 5%, poloxamer F-108 2.5%) is reported as 385 nm and the “Particle Size Weight Average” value ([1]; phenytoin 5%, poloxamer F-127 2.5%) is reported as 431 nm.
With `CN(Cc1cnc2nc(N)nc(N)c2n1)c1ccc(C(=O)N[C@@H](CCC(=O)O)C(=O)O)cc1` [methotrexate] the “Particle Size Weight Average” value ([1]; methotrexate 5%, poloxamer F-68 2.5%) was 196 nm and the “Particle Size Weight Average” value ([1]; methotrexate 5%, poloxamer F-127 2.5%) was 248 nm.
With `COc1ccc2c(c1)c(CC(=O)O)c(C)n2C(=O)c1ccc(Cl)cc1` [indomethacin] the “Particle Size Weight Average” value ([1]; indomethacin 5%, poloxamer F-68 1%) was 228 nm and the “Particle Size Weight Average” value ([1]; indomethacin 5%, poloxamer F-68 2.5%) was 193 nm.
With `C[C@@H]1[C@H](O)[C@@H](C)/C=C/C=C/C=C/C=C/C=C/C=C/C=C/[C@H](O[C@@H]2O[C@H](C)[C@@H](O)[C@H](N)[C@@H]2O)C[C@@H]2O[C@](O)(C[C@@H](O)C[C@@H](O)[C@H](O)CC[C@@H](O)C[C@@H](O)CC(=O)O[C@H]1C)C[C@H](O)[C@H]2C(=O)O` [amphotericin B] the “Particle Size Weight Average” value ([1]; amphotericin B 5%, poloxamer F-68 2.5%) was 426 nm and the “Particle Size Weight Average” value ([1]; amphotericin B 5%, poloxamer F-127 2.5%) was 510 nm.
